Measurements: US20100120763A1, “IMIDAZO[5,1-C][1,2,4]BENZOTRIAZINE DERIVATIVES AS INHIBITORS OF PHOSPHODIESTERASES” (priority 2008, published 2010)
Values belong to the compound of their own block, whether it stands above or below them.

Assays:
PDE10A = target: T1, PDE10A (Homo sapiens, UniProt Q9Y233); assay: Inhibition of recombinant PDE10A (baculovirus/SF21 system), [3H]-cAMP SPA; assay type: biochemical; details: recombinant PDE10A1, cytosolic; 0.1 μM [3H]-cAMP, 37° C., 30 minutes; read-out: PDE10A IC50
T1 construct: made in house; host or cells: SF21 insect cells (baculovirus)
T1 sequence (Q9Y233 1-779 isoform Q9Y233-1): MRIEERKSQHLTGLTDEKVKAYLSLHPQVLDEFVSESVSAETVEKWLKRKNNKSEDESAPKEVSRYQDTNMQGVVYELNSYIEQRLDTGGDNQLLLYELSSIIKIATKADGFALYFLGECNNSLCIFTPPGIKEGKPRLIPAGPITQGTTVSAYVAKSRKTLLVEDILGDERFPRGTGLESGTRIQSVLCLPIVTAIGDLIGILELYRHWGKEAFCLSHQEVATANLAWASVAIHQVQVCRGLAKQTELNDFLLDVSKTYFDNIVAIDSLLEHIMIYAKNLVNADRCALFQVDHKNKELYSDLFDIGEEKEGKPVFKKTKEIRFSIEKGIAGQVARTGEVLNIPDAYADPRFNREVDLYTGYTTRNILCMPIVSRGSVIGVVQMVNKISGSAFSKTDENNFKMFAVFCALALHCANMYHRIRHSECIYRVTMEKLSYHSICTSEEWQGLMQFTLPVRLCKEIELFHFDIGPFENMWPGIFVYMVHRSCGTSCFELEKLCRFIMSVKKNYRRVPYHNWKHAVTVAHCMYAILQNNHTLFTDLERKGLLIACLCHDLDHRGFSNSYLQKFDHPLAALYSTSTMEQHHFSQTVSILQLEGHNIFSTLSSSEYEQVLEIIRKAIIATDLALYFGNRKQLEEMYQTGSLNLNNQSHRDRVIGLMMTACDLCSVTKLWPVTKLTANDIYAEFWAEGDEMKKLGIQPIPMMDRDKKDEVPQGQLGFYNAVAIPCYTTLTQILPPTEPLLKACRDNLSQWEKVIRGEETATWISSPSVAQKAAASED

PDE2A = target: T2, PDE2A (Homo sapiens, UniProt O00408); assay: Inhibition of recombinant PDE2A (expressed in baculovirus/SF21-cells), [3H]-cAMP SPA; assay type: biochemical
T2 construct: made in house; host or cells: SF21 insect cells (baculovirus)
T2 sequence (O00408 whole entry): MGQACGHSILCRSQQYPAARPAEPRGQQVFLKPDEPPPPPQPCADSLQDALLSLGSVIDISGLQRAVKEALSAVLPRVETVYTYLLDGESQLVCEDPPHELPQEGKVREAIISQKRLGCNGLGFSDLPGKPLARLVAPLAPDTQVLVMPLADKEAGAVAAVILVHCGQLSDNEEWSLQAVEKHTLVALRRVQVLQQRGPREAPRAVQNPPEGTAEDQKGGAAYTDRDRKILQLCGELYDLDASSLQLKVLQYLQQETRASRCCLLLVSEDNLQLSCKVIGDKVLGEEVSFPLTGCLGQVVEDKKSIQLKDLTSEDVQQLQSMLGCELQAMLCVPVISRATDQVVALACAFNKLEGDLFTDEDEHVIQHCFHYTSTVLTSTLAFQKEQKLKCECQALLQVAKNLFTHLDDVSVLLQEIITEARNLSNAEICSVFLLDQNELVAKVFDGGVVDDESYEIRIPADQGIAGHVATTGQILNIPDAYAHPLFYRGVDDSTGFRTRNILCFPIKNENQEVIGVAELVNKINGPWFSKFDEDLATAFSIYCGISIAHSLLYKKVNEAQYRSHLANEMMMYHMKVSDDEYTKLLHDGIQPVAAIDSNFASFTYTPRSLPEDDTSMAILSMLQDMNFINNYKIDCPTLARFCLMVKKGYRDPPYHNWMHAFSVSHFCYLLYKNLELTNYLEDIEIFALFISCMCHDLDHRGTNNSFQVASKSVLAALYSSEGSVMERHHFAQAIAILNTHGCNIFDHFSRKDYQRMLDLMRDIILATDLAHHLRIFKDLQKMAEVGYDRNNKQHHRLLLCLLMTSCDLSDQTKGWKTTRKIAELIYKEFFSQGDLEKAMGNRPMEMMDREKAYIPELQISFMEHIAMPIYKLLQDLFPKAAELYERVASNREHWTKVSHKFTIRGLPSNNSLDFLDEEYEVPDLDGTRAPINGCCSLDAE
Summary of the method: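 Membrane fraction of baculovirus/SF21-expressed PDE2A was incubated 30 min at 37° C in Tris-HCl/MgCl2 pH 7.4 with 0.5 μM [3H]-cAMP and 1000 nM cGMP as activator. Product was detected by SPA scintillation. IC50 used a Hill-plot 2-parameter model.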

Compound: Cc1nc(-c2ccccc2Cl)n2c1nnc1ccc(OCc3ccc(F)cc3)cc12 [Example 187, 1-(2-Chloro-phenyl)-8-(4-fluoro-benzyloxy)-3-methyl-imidazo[5,1-c][1,2,4]benzotriazine]
IC50 (PDE10A): 24.6 nM | IC50 (PDE2A): 9.72 nM | melting point: 174 to 177 °C

Compound: Cc1nc(-c2cccc(Cl)c2Cl)n2c1nnc1ccc(-c3cccc(Cl)c3Cl)cc12 [Example 173, 1,8-Bis-(2,3-dichloro-phenyl)-3-methyl-imidazo[5,1-c][1,2,4]benzotriazine]
IC50 (PDE10A): 57.6 nM | IC50 (PDE2A): 61.5 nM | melting point: 207 to 210 °C

Compound: COc1cc2nnc3c(C)nc(Br)n3c2cc1OC [Example 54, 1-bromo-7,8-dimethoxy-3-methylbenzo[e]imidazo[5,1-c][1,2,4]triazine]
melting point: 200 °C

Compound: COc1ccc2c(c1)nnc1c(C)nc(-c3cc(Cl)ccc3Cl)n12 [Example 7, 1-(2,5-dichlorophenyl)-7-methoxy-3-methyl-imidazo[5,1-c][1,2,4]benzotriazine]
IC50 (PDE10A): 258 nM | IC50 (PDE2A): 17.8 nM | melting point: 144 to 147 °C

Compound: CCCOc1ccc(F)c(-c2ccc3nnc4c(C)nc(-c5cc(OCCC)ccc5F)n4c3c2)c1 [Example 174, 1,8-Bis-(2-fluoro-5-propoxy-phenyl)-3-methyl-imidazo[5,1-c][1,2,4]benzotriazine]
IC50 (PDE10A): 41.1 nM | IC50 (PDE2A): 3.55 nM | melting point: 134 to 136 °C

Compound: CCCCOc1ccc(F)c(-c2nc(C)c3nnc4ccc(F)cc4n23)c1 [Example 22, 1-(5-butoxy-2-fluorophenyl)-8-fluoro-3-methylbenzo[e]imidazo[5,1-c][1,2,4]triazine]
IC50 (PDE10A): > 500 nM | IC50 (PDE2A): 37.7 nM | melting point: 148 to 151 °C

Compound: CCCCOc1ccc(F)c(-c2ccc3nnc4c(C)nc(-c5cc(OCCCC)ccc5F)n4c3c2)c1 [Example 175, 1,8-Bis-(5-butoxy-2-fluoro-phenyl)-3-methyl-imidazo[5,1-c][1,2,4]benzotriazine]
IC50 (PDE10A): 21.6 nM | IC50 (PDE2A): 0.77 nM | melting point: 94 to 95 °C

Compound: COc1ccc2c(c1)nnc1c(C)nc(-c3cccnc3C)n12 [Example 36, 7-methoxy-3-methyl-1(2-methylpyridin-3-yl)benzo[e]imidazo[5,1-c][1,2,4]triazine]
IC50 (PDE10A): 351 nM | IC50 (PDE2A): 73.4 nM | melting point: 202 to 205 °C

Compound: Cc1ncn2c1nnc1ccc(F)cc12 [Example 11, 8-fluoro-3-methylbenzo[e]imidazo[5,1-c][1,2,4]triazine]
IC50 (PDE10A): > 10000 nM | IC50 (PDE2A): > 10000 nM | melting point: 230 °C

Compound: COc1cc2nnc3c(C)nc(-c4ccccc4C)n3c2cc1OC [Example 49, 7,8-dimethoxy-3-methyl-1-o-tolylbenzo[e]imidazo[5,1-c][1,2,4]triazine]
melting point: 219 to 221 °C

Compound: Cc1nc(-c2cc(Cl)ccc2Cl)n2c1nnc1ccc(-c3cc(Cl)ccc3Cl)cc12
melting point: 190 to 193 °C

Compound: COc1cc2nnc3c(C)nc(-c4cc(Cl)ccc4Cl)n3c2cc1OC [Example 55, 1-(2,5-dichlorophenyl)-7,8-dimethoxy-3-methylbenzo[e]imidazo[5,1-c][1,2,4]triazine]
melting point: 175 °C

Compound: COc1cc2nnc3c(C)nc(-c4cc(C)ccc4Cl)n3c2cc1OC [Example 56, 1-(2-chloro-5-methylphenyl)-7,8-dimethoxy-3-methylbenzo[e]imidazo[5,1-c][1,2,4]triazine]
melting point: 247 to 249 °C

Compound: Cc1nc(CC(C)C)n2c1nnc1cc(F)c(F)cc12 [Example 59, 7,8-difluoro-1-isobutyl-3-methylbenzo[e]imidazo[5,1-c][1,2,4]triazine]
melting point: 123 to 125.5 °C

Compound: CCOc1ccc(F)c(-c2ccc3nnc4c(C)nc(-c5cc(OCC)ccc5F)n4c3c2)c1
melting point: 152 to 155 °C

Compound: Cc1nc(-c2cc(OC(C)C)ccc2F)n2c1nnc1ccc(-c3cc(OC(C)C)ccc3F)cc12
melting point: 160.5 to 162 °C

Compound: COc1cc2nnc3c(C)nc(CC(C)C)n3c2cc1OC [Example 53, 1-isobutyl-7,8-dimethoxy-3-methylbenzo[e]imidazo[5,1-c][1,2,4]triazine]
melting point: 196 to 199 °C

Compound: COc1cccc2c1nnc1c(C)nc(-c3ccccc3Cl)n12 [Example 61, 1-(2-chlorophenyl)-6-methoxy-3-methylbenzo[e]imidazo[5,1-c][1,2,4]triazine]
IC50 (PDE10A): 2.41 nM | IC50 (PDE2A): 103 nM

Compound: COc1cc(F)cc2c1nnc1c(C)nc(-c3ccc(F)cc3Cl)n12 [Example 111, 1-(2-chloro-4-fluorophenyl)-8-fluoro-6-methoxy-3-methylimidazo[5,1-c][1,2,4]benzotriazine]
IC50 (PDE10A): 3.01 nM | IC50 (PDE2A): 324 nM

Compound: Cc1cn(-c2ccc3nnc4c(C)nc(CC(C)C)n4c3c2)c(CC(C)C)n1 [Example 182, 1-Isobutyl-8-(2-isobutyl-4-methyl-imidazol-1-yl)-3-methyl-imidazo[5,1-c][1,2,4]benzotriazine]
IC50 (PDE10A): 32.8 nM | IC50 (PDE2A): 134 nM

Compound: COc1cc2nnc3c(C)nc(-c4ccccc4Cl)n3c2cc1OC [Example 46, 1-(2-chlorophenyl)-7,8-dimethoxy-3-methylbenzo[e]imidazo[5,1-c][1,2,4]triazine]
melting point: 269 to 272 °C

Compound: COc1cc(F)c2nnc3c(C)nc(-c4ccc(C)cc4Cl)n3c2c1 [Example 71, 1-(2-chloro-4-methylphenyl)-6-fluoro-8-methoxy-3-methylimidazo[5,1-c][1,2,4]benzotriazine]
IC50 (PDE10A): 11.4 nM | IC50 (PDE2A): 5.53 nM

Compound: COc1cc(C(F)(F)F)cc2c1nnc1c(C)nc(-c3ccncc3C)n12 [Example 134, 6-methoxy-3-methyl-1-(3-methylpyridin-4-yl)-8-(trifluoromethyl)benzo[e]imidazo[5,1-c][1,2,4]triazine]
IC50 (PDE10A): 1.48 nM | IC50 (PDE2A): 346 nM

Compound: COc1cc(OC)c2nnc3c(C)nc(-c4cccnc4C)n3c2c1 [Example 48, 6,8-dimethoxy-3-methyl-1-(2-methylpyridin-3-yl)imidazo[5,1-c][1,2,4]benzotriazine]
IC50 (PDE10A): 1.48 nM | IC50 (PDE2A): 196 nM

Now from value to compound:

IC50 (PDE10A): 23.7 nM | IC50 (PDE2A): 3.31 nM | melting point: 165 to 168 °C
Compound: COc1ccc2nnc3c(C)nc(-c4cc(Cl)ccc4Cl)n3c2c1 [Example 5, 1-(2,5-dichlorophenyl)-8-methoxy-3-methyl-imidazo[5,1-c][1,2,4]benzotriazine]

IC50 (PDE10A): 2030 nM | IC50 (PDE2A): 1360 nM | melting point: 141 to 144 °C
Compound: Cc1nc(-c2cnccc2Cl)n2c1nnc1ccc(F)cc12 [Example 19, 1-(4-chloropyridin-3-yl)-8-fluoro-3-methylbenzo[e]imidazo[5,1-c][1,2,4]triazine]

melting point: 119 to 122 °C
Compound: CCCOc1ccc(F)c(-c2nc(C)c3nnc4cc(F)ccc4n23)c1

IC50 (PDE10A): 308 nM | IC50 (PDE2A): 371 nM | melting point: 193 to 196 °C
Compound: Cc1nc(-c2cccc(Cl)c2Cl)n2c1nnc1ccc(F)cc12 [Example 14, 1-(2,3-dichlorophenyl)-8-fluoro-3-methylbenzo[e]imidazo[5,1-c][1,2,4]triazine]

melting point: 91 to 94 °C
Compound: CCCCOc1ccc(F)c(-c2nc(C)c3nnc4cc(F)ccc4n23)c1

IC50 (PDE10A): 196 nM | IC50 (PDE2A): 122 nM | melting point: 192 to 195 °C
Compound: Cc1ccccc1-c1nc(C)c2nnc3ccc(F)cc3n12 [Example 17, 8-fluoro-3-methyl-1-o-tolylbenzo[e]imidazo[5,1-c][1,2,4]triazine]

IC50 (PDE10A): 117 nM | IC50 (PDE2A): 137 nM | melting point: 155 to 158 °C
Compound: Cc1nc(-c2cc(C(F)(F)F)ccc2F)n2c1nnc1ccc(-c3cc(C(F)(F)F)ccc3F)cc12 [Example 176, 1,8-Bis-(2-fluoro-5-trifluoromethyl-phenyl)-3-methyl-imidazo[5,1-c][1,2,4]benzotriazine]

IC50 (PDE10A): > 5000 nM | IC50 (PDE2A): > 1000 nM | melting point: 217 to 220 °C
Compound: Cc1nc(-c2ccnn2C)n2c1nnc1ccc(F)cc12 [Example 15, 8-fluoro-3-methyl-1-(1-methyl-1H-pyrazol-5-yl)benzo[e]imidazo[5,1-c][1,2,4]triazine]

IC50 (PDE10A): > 1000 nM | IC50 (PDE2A): 912 nM | melting point: 176 to 179 °C
Compound: Cc1nc(-c2cc(C(F)(F)F)ccc2F)n2c1nnc1ccc(F)cc12 [Example 21, 8-fluoro-1-(2-fluoro-5-(trifluoromethyl)phenyl)-3-methylbenzo[e]imidazo[5,1-c][1,2,4]triazine]

IC50 (PDE10A): 77.2 nM | IC50 (PDE2A): 5.31 nM | melting point: 188 to 190 °C
Compound: Cc1nc(-c2cc(Cl)ccc2Cl)n2c1nnc1ccc(Cl)cc12 [Example 37, 8-chloro-1-(2,5-dichlorophenyl)-3-methylbenzo[e]imidazo[5,1-c][1,2,4]triazine]

IC50 (PDE10A): > 500 nM | IC50 (PDE2A): 233 nM | melting point: 174 to 177 °C
Compound: Cc1nc(-c2cc(OC(C)C)ccc2F)n2c1nnc1ccc(Cl)cc12 [Example 43, 8-chloro-1-(2-fluoro-5-isopropoxyphenyl)-3-methylbenzo[e]imidazo[5,1-c][1,2,4]triazine]

IC50 (PDE10A): 115 nM | melting point: 179 to 182 °C
Compound: COc1ccccc1-c1nc(C)c2nnc3ccc(Cl)cc3n12 [Example 39, 8-chloro-1-(2-methoxyphenyl)-3-methylbenzo[e]imidazo[5,1-c][1,2,4]triazine]

melting point: 157 to 159 °C
Compound: Cc1nc(-c2ccccc2Cl)n2c1nnc1cc(F)c(F)cc12 [Example 58, 1-(2-chlorophenyl)-7,8-difluoro-3-methylbenzo[e]imidazo[5,1-c][1,2,4]triazine]

melting point: 147 to 150 °C
Compound: COc1cc2nnc3c(C)nc(-c4ccccc4C(F)(F)F)n3c2cc1OC [Example 57, 7,8-dimethoxy-3-methyl-1-(2-(trifluoromethyl)phenyl)benzo[e]imidazo[5,1-c][1,2,4]triazine]
